Reference: patent US20230372496A1, “TRICYCLIC HETEROBIFUNCTIONAL COMPOUNDS FOR DEGRADATION OF TARGETED PROTEINS” (C4 Therapeutics, Inc., priority 2020, published 2023)
Like-named read-outs stand apart in the source and are kept apart here.

Tests used:
[1] = molecular target: NSP3 UBL2_PLpro-HA-HiBiT (Severe acute respiratory syndrome coronavirus 2, UniProt P0DTC1); assay: NSP3 UBL2_PLpro-HA-HiBiT degradation assay (cellular) in 293T cells; assay type: cell-based, Severe acute respiratory syndrome Coronavirus 2 (Sars-CoV-2); settings: 6.0 hours; for DC50: read-out: HiBiT-Degradation 293T.234 NSP3_PLpro 6.0 hours (DC50); for Emax: HEK-293T, Emax = residual protein remaining after treatment, read-out: HiBiT-Degradation 293T.234 NSP3_PLpro 6.0 hours (Emax %)
[2] = molecular target: CRBN-DDB1 (Homo sapiens, UniProt Q96SW2); assay: CRBN FP binding assay (fluorescence polarization); settings: 150 nM CRBN-DDB1, 5 nM Alexa-647 probe, read-out: FP CRBN_DDB1.3 ka
Procedure: The determination of the binding constant (KD) of test compounds to CRBN-DDB1 was carried out using an established sensitive and quantitative in vitro fluorescence polarization (FP) binding assay. Control compounds were run on the same plate. Compounds were dispensed from serially diluted DMSO stock supplied by Frontier Scientific Services Inc in low dead volume plates into black 384-well compatible FP plates using acoustic technology to 1% of total reaction volume. Compounds were arranged vertically in rows A through P. Concentrations series are horizontal: columns 1-11, and then duplicates in columns 12-22. Columns 23 and 24 are reserved for 0% (5 nM probe) and 100% controls (protein at high concentration with 5 nM probe), respectively. […] Matching control plates excluding CRBN-DDB1 were used to correct for background fluorescence. Plates were read on an Envision plate reader with appropriate FP filter sets.

[3] = molecular target: cellular cereblon (CRBN) (Homo sapiens, UniProt Q96SW2); assay: NanoBRET CRBN assay, displacement of pomalidomide-NanoBRET tracer in 293T cells
[4] = molecular target: T1, CBP/P300 (Homo sapiens, UniProt Q92793); assay: CBP/P300 degradation, Nano-Glo HiBiT lytic assay; assay type: cell-based; settings: HEK293T HiBiT-CBP cells, 6 h incubation; for Emax: HEK-293T
T1 construct: endogenous in cells; host or cells: HEK293T (CRISPR/Cas9 HiBiT knock-in at the CBP locus)
Excerpt: Assay media was DMEM no-phenol red medium and fetal bovine serum (FBS) were purchased from Gibco (Grand Island, N.Y., USA). Nano-Glo®, 1HiBiT Lydc Assay Systeni was purchased from Promega (Madison, Wis. USA). Stable HEK293T cell line with endogenously tagged HiBiT-CBP was generated in house by CRISPR/Cas9 gene editing introducing the HiBiT fusion tag at the N-terminus using homologous directed repair. Cell culture flasks and 384-well microplates were acquired from VWR (Radnor, Pa., USA).
CBP degradation was determined based on quantification of luminescent signal using Nano-Glo® HiBiT Lytic Assay kit. Test compounds were added to the 384-well plate from a top […] with 11 points, half log titration in duplicates, Cells were added into 384-well Corning 3570 plates, (Corning, Tewksbury, MA, USA) at a cell density of 10,000 cells per well in assay media. The plates were incubated at 37° C. with 5% CO2 for 6 hours. The cells treated in the absence of the test compound were the negative control and media was the positive control. After 6-hour incubation, Nano-Glo® HiBiT Lytic Assay reagents were added to the cells, Luminescence was acquired on EnVision™ Multilabel Reader (PerkinElmer, Santa Clara, Calif., USA).

[5] = tested on: ERK1/2; assay: ERK1/2 degradation, Total ERK HTRF assay in Colo205 cells; assay type: cell-based; settings: 6 h, read-out: ERK1/2 6 h DC50 (Emax %)
Procedure: Colo205 CCL-222 cells were purchased from ATCC. RPMI 1640 no-phenol red medium and fetal bovine serum (FBS) were purchased from Gibco (Grand Island, NY, USA). Cell culture flasks and 384-well microplates were acquired from VWR (Radnor, PA, USA). Total ERK HTRF assay kits were purchased from Cisbio (64NRKPEH, Bedford, MA, USA).
Degradation of ERK1/2 was determined based on quantification of FRET signal using a Total ERK1/2 HTRF assay kit. Test compounds were added to the 384-well plate from a top concentration of 10 μM with 10 points, half-log titration in duplicates. COL0205 cells were added into 384-well plates at a cell density of 5,000 cells per well. The plates were kept at 37° C. with 5% CO2 for 6 hours. Cells treated in the absence of the test compound were the negative control. Positive control was set by wells containing all reagents but no cells. HTRF regents were added according to manufacturer's instructions with the additional step of lysate denaturation at 95° C. for 10 minutes and cooling to room temperature before antibody addition. Following addition of the antibodies the samples were incubated overnight. FRET signal was acquired on an EnVision™ Multilabel Reader (PerkinElmer, Santa Clara, CA, USA).

[6] = 1.5 h room temperature, class symbols
[7] = 1.5 h room temperature, numeric bounds

T1 sequence (Q92793 whole entry): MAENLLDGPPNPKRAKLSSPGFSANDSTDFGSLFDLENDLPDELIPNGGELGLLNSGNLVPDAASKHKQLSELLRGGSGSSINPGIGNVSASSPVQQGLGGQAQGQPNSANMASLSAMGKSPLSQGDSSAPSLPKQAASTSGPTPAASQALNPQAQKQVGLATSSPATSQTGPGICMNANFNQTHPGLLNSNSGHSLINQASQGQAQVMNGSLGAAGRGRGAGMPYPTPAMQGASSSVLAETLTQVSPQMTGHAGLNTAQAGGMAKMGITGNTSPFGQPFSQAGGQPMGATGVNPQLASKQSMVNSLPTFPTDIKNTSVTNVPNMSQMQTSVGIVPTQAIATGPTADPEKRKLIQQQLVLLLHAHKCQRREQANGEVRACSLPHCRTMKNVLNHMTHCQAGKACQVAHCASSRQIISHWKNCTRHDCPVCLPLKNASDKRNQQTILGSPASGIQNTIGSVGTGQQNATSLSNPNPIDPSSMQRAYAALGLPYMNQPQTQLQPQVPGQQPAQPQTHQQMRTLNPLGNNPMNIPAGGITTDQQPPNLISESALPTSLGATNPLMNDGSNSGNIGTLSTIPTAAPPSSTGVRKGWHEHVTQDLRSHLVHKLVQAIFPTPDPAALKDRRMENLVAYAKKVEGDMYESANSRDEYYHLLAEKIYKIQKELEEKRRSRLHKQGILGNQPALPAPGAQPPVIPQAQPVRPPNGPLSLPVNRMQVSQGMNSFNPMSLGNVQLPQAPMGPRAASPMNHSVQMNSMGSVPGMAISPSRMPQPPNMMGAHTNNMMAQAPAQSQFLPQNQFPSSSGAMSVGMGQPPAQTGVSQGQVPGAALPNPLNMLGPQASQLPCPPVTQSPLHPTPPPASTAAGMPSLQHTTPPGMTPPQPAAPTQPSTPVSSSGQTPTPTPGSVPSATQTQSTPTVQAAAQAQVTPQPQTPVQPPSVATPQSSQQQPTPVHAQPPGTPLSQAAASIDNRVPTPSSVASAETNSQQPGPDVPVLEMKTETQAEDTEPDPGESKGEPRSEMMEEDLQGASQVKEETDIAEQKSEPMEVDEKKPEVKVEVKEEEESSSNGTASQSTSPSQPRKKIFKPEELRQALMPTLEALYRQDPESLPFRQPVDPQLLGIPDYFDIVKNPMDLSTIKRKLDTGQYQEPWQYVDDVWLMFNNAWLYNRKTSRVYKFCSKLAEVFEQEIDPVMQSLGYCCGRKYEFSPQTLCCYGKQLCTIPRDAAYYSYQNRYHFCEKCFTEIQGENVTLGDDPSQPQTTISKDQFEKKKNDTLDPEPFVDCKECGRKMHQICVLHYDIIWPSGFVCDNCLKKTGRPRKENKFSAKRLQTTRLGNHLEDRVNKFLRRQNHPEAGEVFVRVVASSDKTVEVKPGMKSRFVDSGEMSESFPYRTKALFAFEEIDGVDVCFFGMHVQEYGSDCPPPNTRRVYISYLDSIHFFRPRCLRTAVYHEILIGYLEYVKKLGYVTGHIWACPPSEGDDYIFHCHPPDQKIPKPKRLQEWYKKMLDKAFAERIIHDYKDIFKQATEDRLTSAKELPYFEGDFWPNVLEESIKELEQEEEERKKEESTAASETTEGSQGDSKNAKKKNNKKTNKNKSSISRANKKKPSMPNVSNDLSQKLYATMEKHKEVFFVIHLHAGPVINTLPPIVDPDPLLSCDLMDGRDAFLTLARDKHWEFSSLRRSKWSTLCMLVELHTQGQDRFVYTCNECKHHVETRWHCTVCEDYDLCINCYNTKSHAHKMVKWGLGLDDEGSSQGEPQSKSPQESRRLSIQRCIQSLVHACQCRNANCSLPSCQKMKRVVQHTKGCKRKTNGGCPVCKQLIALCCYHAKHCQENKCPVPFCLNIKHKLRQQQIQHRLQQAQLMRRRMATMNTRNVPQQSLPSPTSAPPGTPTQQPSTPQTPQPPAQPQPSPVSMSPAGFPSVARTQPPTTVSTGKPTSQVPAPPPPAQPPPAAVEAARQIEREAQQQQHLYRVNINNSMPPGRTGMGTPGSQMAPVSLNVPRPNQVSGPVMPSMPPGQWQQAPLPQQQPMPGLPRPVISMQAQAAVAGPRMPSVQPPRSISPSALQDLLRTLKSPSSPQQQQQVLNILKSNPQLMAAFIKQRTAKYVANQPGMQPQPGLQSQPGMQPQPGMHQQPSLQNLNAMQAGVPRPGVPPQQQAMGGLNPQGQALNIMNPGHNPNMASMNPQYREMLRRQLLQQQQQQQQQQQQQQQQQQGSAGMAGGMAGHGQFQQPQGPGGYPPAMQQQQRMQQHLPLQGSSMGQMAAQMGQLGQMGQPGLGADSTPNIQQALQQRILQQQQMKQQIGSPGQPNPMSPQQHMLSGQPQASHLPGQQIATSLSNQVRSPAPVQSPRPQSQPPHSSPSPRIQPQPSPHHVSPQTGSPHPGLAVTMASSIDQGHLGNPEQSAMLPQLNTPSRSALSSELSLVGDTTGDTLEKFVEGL
CRBN-DDB1, sequence (Q96SW2 whole entry): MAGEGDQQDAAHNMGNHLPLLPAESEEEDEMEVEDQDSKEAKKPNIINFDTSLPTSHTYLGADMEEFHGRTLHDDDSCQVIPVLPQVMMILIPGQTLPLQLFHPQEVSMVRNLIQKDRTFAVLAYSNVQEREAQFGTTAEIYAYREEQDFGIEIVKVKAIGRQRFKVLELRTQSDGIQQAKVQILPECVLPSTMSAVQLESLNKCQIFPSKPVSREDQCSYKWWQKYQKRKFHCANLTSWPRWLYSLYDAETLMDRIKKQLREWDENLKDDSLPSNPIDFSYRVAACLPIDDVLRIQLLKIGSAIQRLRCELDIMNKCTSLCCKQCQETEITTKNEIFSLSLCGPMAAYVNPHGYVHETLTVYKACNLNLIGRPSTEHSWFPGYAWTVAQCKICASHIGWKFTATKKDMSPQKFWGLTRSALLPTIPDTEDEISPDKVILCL
CRBN-DDB1, sequence (Q16531 whole entry partner): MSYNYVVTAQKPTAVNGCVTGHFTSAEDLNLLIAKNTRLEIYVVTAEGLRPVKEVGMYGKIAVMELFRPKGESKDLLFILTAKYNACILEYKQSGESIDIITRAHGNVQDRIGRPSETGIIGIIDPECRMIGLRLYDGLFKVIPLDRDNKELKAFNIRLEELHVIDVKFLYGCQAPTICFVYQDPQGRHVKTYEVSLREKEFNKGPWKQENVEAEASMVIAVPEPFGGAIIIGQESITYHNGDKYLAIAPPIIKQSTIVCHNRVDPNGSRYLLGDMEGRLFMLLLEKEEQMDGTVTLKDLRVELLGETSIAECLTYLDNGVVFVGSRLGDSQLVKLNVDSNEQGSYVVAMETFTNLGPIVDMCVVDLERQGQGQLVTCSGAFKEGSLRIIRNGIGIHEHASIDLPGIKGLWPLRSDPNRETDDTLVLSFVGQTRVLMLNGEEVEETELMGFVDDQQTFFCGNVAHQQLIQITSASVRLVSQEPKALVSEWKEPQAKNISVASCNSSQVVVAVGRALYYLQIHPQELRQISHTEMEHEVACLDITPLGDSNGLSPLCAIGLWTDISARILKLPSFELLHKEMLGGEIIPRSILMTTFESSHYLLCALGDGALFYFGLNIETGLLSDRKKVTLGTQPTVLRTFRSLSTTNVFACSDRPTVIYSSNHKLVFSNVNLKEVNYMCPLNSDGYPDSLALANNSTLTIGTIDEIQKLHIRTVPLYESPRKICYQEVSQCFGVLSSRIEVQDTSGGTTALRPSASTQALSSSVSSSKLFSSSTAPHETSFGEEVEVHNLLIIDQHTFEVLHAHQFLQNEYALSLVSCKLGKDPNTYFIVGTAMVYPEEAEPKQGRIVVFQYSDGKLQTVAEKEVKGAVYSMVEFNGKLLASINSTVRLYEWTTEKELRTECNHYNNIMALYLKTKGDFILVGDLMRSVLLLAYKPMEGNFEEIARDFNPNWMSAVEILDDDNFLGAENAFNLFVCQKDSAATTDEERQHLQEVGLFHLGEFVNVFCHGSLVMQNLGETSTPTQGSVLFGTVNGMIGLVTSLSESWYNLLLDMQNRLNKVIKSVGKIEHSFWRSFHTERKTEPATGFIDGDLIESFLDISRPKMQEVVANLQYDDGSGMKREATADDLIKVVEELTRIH
cellular cereblon (CRBN), sequence (Q96SW2 whole entry, species assumed): as the sequence (Q96SW2 whole entry) above

Structure (SMILES)	DC50 [1] [nM]	Emax [1] [%]	IC50 [3] [nM]	also measured
CC(c1ccc(C#CC2CCN(C(=O)CN3CCC(c4ccc5c6c(cccc46)N(C4CCC(=O)NC4=O)C5=O)CC3)CC2)c2ccccc12)N1CCC(C(=O)NCc2cccc(F)c2)CC1 (stereo not drawn) [Compound 103, 1-[1-[4-[2-[1-[2-[4-[1-(2,6-dioxo-3-piperidyl)-2-oxo-benzo[cd]indol-5-yl]-1-piperidyl]acetyl]-4-piperidyl]ethynyl]-1-naphthyl]ethyl]-N-[(3-fluorophenyl)methyl]piperidine-4-carboxamide]	> 10000	61 to 95		
COC(=O)c1ccc2c3c(cccc13)C(=O)N2C1CCC(=O)NC1=O (stereo not drawn)			< 100	Kd [2, 6]: 100 to 1000 nM
CC(c1ccc(C#CC2CCN(C(=O)CN3CCC(c4ccc5c6c(cccc46)C(=O)N5C4CCC(=O)NC4=O)CC3)CC2)c2ccccc12)N1CCC(C(=O)NCc2cccc(F)c2)CC1 (stereo not drawn) [Compound 102, 1-[1-[4-[2-[1-[2-[4-[1-(2,6-dioxo-3-piperidyl)-2-oxo-benzo[cd]indol-6-yl]-1-piperidyl]acetyl]-4-piperidyl]ethynyl]-1-naphthyl]ethyl]-N-[(3-fluorophenyl)methyl]piperidine-4-carboxamide]	> 10000	61 to 95		
CNC(=O)N1CCc2c(c(N3CCCc4cc(-c5cnn(C)c5)c(C(F)F)cc43)nn2C2CCN(C(=O)CCCCCCCCN3CCC(Nc4ccc5c6c(cccc46)C(=O)N5C4CCC(=O)NC4=O)CC3)CC2)C1 (stereo not drawn)				DC50 [4]: < 10 nM; Emax [4]: < 30%; Kd [2, 7]: < 10 nM
CC(c1cccc2c(C#CC3CCN(C(=O)CN4CCC(c5ccc6c7c(cccc57)C(=O)N6C5CCC(=O)NC5=O)CC4)CC3)cccc12)N1CCC(C(=O)NCc2cccc(F)c2)CC1 (stereo not drawn) [Compound 104, 1-[1-[5-[2-[1-[2-[4-[1-(2,6-dioxo-3-piperidyl)-2-oxo-benzo[cd]indol-6-yl]-1-piperidyl]acetyl]-4-piperidyl]ethynyl]-1-naphthyl]ethyl]-N-[(3-fluorophenyl)methyl]piperidine-4-carboxamide]	> 10000	61 to 95		
CC(c1cccc2c(C#CC3CCN(C(=O)CN4CCC(c5ccc6c7c(cccc57)N(C5CCC(=O)NC5=O)C6=O)CC4)CC3)cccc12)N1CCC(C(=O)NCc2cccc(F)c2)CC1 (stereo not drawn) [Compound 105, 1-[1-[5-[2-[1-[2-[4-[1-(2,6-dioxo-3-piperidyl)-2-oxo-benzo[cd]indol-5-yl]-1-piperidyl]acetyl]-4-piperidyl]ethynyl]-1-naphthyl]ethyl]-N-[(3-fluorophenyl)methyl]piperidine-4-carboxamide]	> 10000	61 to 95		
CNC(=O)N1CCc2c(c(N3CCCc4cc(-c5cnn(C)c5)c(C(F)F)cc43)nn2C2CCN(C(=O)CCCCCCCCN3CCC(c4ccc5c6c(cccc46)C(=O)N5C4CCC(=O)NC4=O)CC3)CC2)C1 (stereo not drawn)				DC50 [4]: < 10 nM; Emax [4]: < 30%; Kd [2, 7]: < 10 nM
O=C1CCC(N2C(=O)C3CCCc4c(C5CCN(CCCC(=O)N6CC(c7nc8ccc(-c9n[nH]c%10cc%11c(cc9%10)CN(Cc9ccccc9)C(=O)N%11)cc8o7)C6)CC5)ccc2c43)C(=O)N1 (stereo not drawn)				Kd ([2]; class symbols): 1000 to 10000 nM; DC50 [5]: 100 to 1000 nM
Nc1ccc2c3c(cccc13)C(=O)N2C1CCC(=O)NC1=O (stereo not drawn)			< 100	Kd [2, 6]: 100 to 1000 nM
N#Cc1ccc2c3c(cccc13)C(=O)N2C1CCC(=O)NC1=O (stereo not drawn)			< 100	
O=C1CCC(N2C(=O)c3cccc4c(C5CCN(CC(=O)N6CC(c7nc8ccc(-c9n[nH]c%10cc%11c(cc9%10)CN(Cc9ccccc9)C(=O)N%11)cc8o7)C6)CC5)ccc2c34)C(=O)N1 (stereo not drawn)				Kd ([2]; class symbols): 1000 to 10000 nM; DC50 [5]: 100 to 1000 nM
O=C1CCC(N2C(=O)c3cccc4c(C5CCNCC5)ccc2c34)C(=O)N1 (stereo not drawn)			< 100	
